Measurements from US20260257987A1, “COMPOUNDS AND METHOD FOR UPREGULATION OF P53 THROUGH INDUCTION OF MDM2 DEGRADATION” (Georgia State University Research Foundation, Inc., priority 2022, published 2026).

Tests used:
[1] = test system: MDM2 level in RS4;11 cells; test: Preliminary study of MDM2 level in RS4;11 cells; assay type: cell-based
[2] = test system: EU-1 (in-house cell line); test: Cytotoxicity test of BW-AQ-365 (CCK-8) in EU-1 cells; assay type: cell-based; details: EU-1, 25000 cells/well, 24 h
[3] = Thiol (NAC) reactivity study by HPLC; assay type: physicochemical
Method: HPLC was performed on Shimadzu LC-20AT HPLC system. Condition: mobile phase A: water with 0.05% TFA; B: acetonitrile with 0.05% TFA; gradient: 5-95% B, 0-10 min; […]; 5% B 12.1-15 min. Column: C18, 3.5 μm, 4.6×150 mm; UV detector monitored at 254 nm. For the thiol reactivity assay, a 0.3 mM solution of AQ-analogs was prepared in 0.5 mL PBS: MeOH (80:20) and warmed at 37° C. Next, 25 μL of NAC (from 30 mM stock solution in PBS) was added to the above solution. The resultant solution had final concentrations of 0.3 mM AQ-analogs and 1.5 mM NAC. 20 μL of the reaction mixture was injected into the HPLC at the designated time intervals. The area percentage values were determined via the integration of the area under the curve (AUC) of the chromatogram.

[4] = test system: RS4;11 cells (wild-type p53); test: Cytotoxicity test of BW-AQ-365 (CCK-8) in RS4;11 cells; assay type: cell-based; details: for IC50: Homo sapiens, RS4
Method: Cell viability was assessed by using Cell Counting Kit-8 (CCK-8, Dojindo, Japan). RS4;11 cells (wild-type p53) were cultured in RPMI-1640 medium (Corning, USA). The culture mediums were supplemented with 10% fetal bovine serum (Corning, USA) and 100 unit/ml penicillin, and […] streptomycin. […] Compounds were dissolved in DMSO (molecular biology grade, Sigma-Aldrich, USA) to make 10 mM stock solutions, which were serially diluted with the culture medium to various concentrations (final DMSO concentration=0.5%). A culture medium (50 μL) containing BW-AQ-365 was added directly to the cell suspension in each well immediately after seeding. After incubation for 24-72 h at 37° C. in a humidified atmosphere with 5% CO2, 10 μL of CCK-8 solution was added to each well, and the plate was incubated for an additional 2-4 h at 37° C. before measuring the optical density at 450 nm with a microplate reader (PerkinElmer Victor 2, USA). The cell viability of each well was calculated as the percentage of the untreated control according to the manufacturer's manual. All tests were performed in triplicates, and IC50 values were determined by non-linear regression using GraphPad Prism 9.0.

reactivity towards thiol, in words [3]: less reactivity towards thiol
SMILES: CC(=O)CCCOc1cccc2c1C(=O)c1c(OCCCC(C)=O)cc(NC(=O)CN=[N+]=[N-])cc1C2=O [BW-AQ-365, 2-azido-N-(9,10-dioxo-4,5-bis ((4-oxopentyl)oxy)-9,10-dihydroanthracen-2-yl)acetamide]
MDM2 level in RS4;11 cells [1]: dose-dependently decrease MDM2 level
IC50 [2]: 1550 ± 440 nM
IC50 ([4]; RS4-11, 48 h, 11, 10000 cells/well, 48 h): 190 ± 10 nM
IC50 ([4]; RS4-11, 48 h, 11, 25000 cells/well, 48 h): 610 ± 30 nM
IC50 ([4]; RS4-11, 72 h, 11, 25000 cells/well, 72 h): 5500 ± 320 nM
anticancer activity in RS4;11 cells compared with BW-AQ-295 ([4]; RS4;11 cells): more potent than BW-AQ-295
